Experiments:
yeast = assay: Final proofing time of dough containing the additive; assay type: cell-based; details: 6.5 grams additive in dough; final proofing at 40° C. and relative humidity of 80%; time of rising to a specific maximum volume
Description: Then a dough comprising the following ingredients was prepared: [table] Then a further additive was mixed with the above-mentioned dough: The four above-mentioned doughs were mixed for half a minute at slow speed in a McDuffy mixer and then for 8.5 minutes at high speed in the same mixer. The dough temperature was 26° C. The resting time was 2 minutes (at room temperature). After said resting time 420 grams of each dough was taken, and the doughs (each of 420 grams) were then rounded up softly by hand. The initial proofing time was 6 minutes (at room temperature), after which the doughs were moulded into a certain baking form. The final proofing time (at 40° C. and a relative humidity of 80%) was determined, which appeared to be dependent on the type of further additive as contained in the four above-mentioned doughs. With “final proofing time” it is herein meant the time period of rising the dough, before baking, to a certain extent being a specific maximum volume. After this final proofing the doughs were baked for 20 minutes in an oven at 210° C. (top oven temperature) and at 230° C. (bottom oven temperature). The four bread products as obtained were then stored at room temperature (and at a relative humidity of 80%). During 1 month it was determined by means of visual observation whether or not moulds were formed on the four bread products.

moulds = assay: Mould formation on stored bread product (visual observation); assay type: cell-based; details: bread stored at room temperature, relative humidity of 80%, visual observation during 1 month
Description: The four above-mentioned doughs were mixed for half a minute at slow speed in a McDuffy mixer and then for 8.5 minutes at high speed in the same mixer. The dough temperature was 26° C. The resting time was 2 minutes (at room temperature). After said resting time 420 grams of each dough was taken, and the doughs (each of 420 grams) were then rounded up softly by hand. The initial proofing time was 6 minutes (at room temperature), after which the doughs were moulded into a certain baking form. The final proofing time (at 40° C. and a relative humidity of 80%) was determined, which appeared to be dependent on the type of further additive as contained in the four above-mentioned doughs. With “final proofing time” it is herein meant the time period of rising the dough, before baking, to a certain extent being a specific maximum volume. After this final proofing the doughs were baked for 20 minutes in an oven at 210° C. (top oven temperature) and at 230° C. (bottom oven temperature). The four bread products as obtained were then stored at room temperature (and at a relative humidity of 80%). During 1 month it was determined by means of visual observation whether or not moulds were formed on the four bread products.

CCC(=O)[O-].CCC(=O)[O-].[Ca+2] [Comparative, calcium propionate] was tested. Which “Final proofing time of dough” value (yeast) did it give?
The value was 90 min.

And the “Mould formation on bread product” value (moulds)?
Its value is “no”.
